Experimental data taken from US7109193B2, “Tricyclic diazepines tocolytic oxytocin receptor antagonists” (Wyeth, priority 2001, dated 2006).

Target: T1, human oxytocin receptor (Homo sapiens, UniProt P30559)
T1 construct: host or cells: CHO cells (pcDNA3.1 vector)
T1 sequence (P30559 1-389): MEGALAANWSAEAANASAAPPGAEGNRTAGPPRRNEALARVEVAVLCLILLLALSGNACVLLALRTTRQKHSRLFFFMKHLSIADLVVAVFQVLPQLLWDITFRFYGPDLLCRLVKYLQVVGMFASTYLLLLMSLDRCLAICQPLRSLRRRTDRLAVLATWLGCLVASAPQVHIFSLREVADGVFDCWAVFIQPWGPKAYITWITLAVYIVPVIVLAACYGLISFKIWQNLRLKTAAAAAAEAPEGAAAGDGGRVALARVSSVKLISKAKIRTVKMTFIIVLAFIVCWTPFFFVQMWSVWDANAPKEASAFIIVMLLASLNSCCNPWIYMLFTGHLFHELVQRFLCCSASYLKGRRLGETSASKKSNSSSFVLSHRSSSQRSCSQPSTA
Assay: Oxytocin binding in Chinese Hamster Ovary cell membranes expressing human oxytocin receptors
Conditions: 100 nM, CHO cell membranes, [3H]oxytocin, values without parentheses, read-out: OT % inhibition @ 100% nM

SMILES | inhibition at 0.1 µM [%]
COc1ccccc1-c1ccc(C(=O)N2Cc3ccc(C(=O)O)n3Cc3ccccc32)cc1C [Example 9, 10-[(2′-Methoxy-2-methyl-[1,1′-biphenyl]-4-yl)carbonyl]-10,11-dihydro-5H-pyrrolo[2,1-c][1,4]benzodiazepine-3-carboxylic acid] | 32
COc1ccccc1-c1ccc(C(=O)N2Cc3ccc(C(=O)NCCC4CCCN4C)n3Cc3ccccc32)cc1OC (stereo not drawn) [Example 171, 10-[(2,2′-Dimethoxy[1,1′-biphenyl]-4-yl)carbonyl]-N-[2-(1-methyl-2-pyrrolidinyl)ethyl]-10,11-dihydro-5H-pyrrolo[2,1-c][1,4]benzodiazepine-3-carboxamide] | 40
COc1cccc(-c2ccc(C(=O)N3Cc4ccc(C(=O)N5CCN(C(C)C)CC5)n4Cc4ccccc43)cc2OC)c1 [Example 242, {10-[(2,3′-Dimethoxy[1,1′-biphenyl]-4-yl)carbonyl]-10,11-dihydro-5H-pyrrolo[2,1-c][1,4]benzodiazepin-3-yl}(4-isopropyl-1-piperazinyl)methanone] | 69
COc1ccccc1-c1ccc(C(=O)N2Cc3ccc(C(=O)N4CCN(CCN5CCOCC5)CC4)n3Cc3ccccc32)cc1OC [Example 214, {10-[(2,2′-Dimethoxy[1,1′-biphenyl]-4-yl)carbonyl]-10,11-dihydro-5H-pyrrolo[2,1-c][1,4]benzodiazepin-3-yl}{4-[2-(4-morpholinyl)ethyl]-1-piperazinyl}methanone] | 64
COc1cc(-c2ccccc2C)c(Cl)cc1C(=O)N1Cc2ccc(C(=O)N(C)C3CCN(C)CC3)n2Cc2ccccc21 [Example 180, 10-[(6-Chloro-3-methoxy-2′-methyl[1,1′-biphenyl]-4-yl)carbonyl]-N-methyl-N-(1-methyl-4-piperidinyl)-10,11-dihydro-5H-pyrrolo[2,1-c][1,4]benzodiazepine-3-carboxamide] | 98
COc1cc(-c2ccccc2C)c(Cl)cc1C(=O)N1Cc2ccc(C(=O)N3CCN(C(C)C)CC3)n2Cc2ccccc21 [Example 238, {10-[(6-Chloro-3-methoxy-2′-methyl[1,1′-biphenyl]-4-yl)carbonyl]-10,11-dihydro-5H -pyrrolo[2,1-c][1,4]benzodiazepin-3-yl}(4-isopropyl-1-piperazinyl)methanone] | 79
COc1ccccc1-c1ccc(C(=O)N2Cc3ccc(C(=O)NCCC4CCCN4C)n3Cc3ccccc32)cc1C (stereo not drawn) [Example 162, 10-[(2′-Methoxy-2-methyl[1,1′-biphenyl]-4-yl)carbonyl]-N-[2-(1-methyl-2-pyrrolidinyl)ethyl]-10,11-dihydro-5H-pyrrolo[2,1-c][1,4]benzodiazepine-3-carboxamide] | 71
Cc1cc(C(=O)N2Cc3ccc(C(=O)NCCN4CCCCC4)n3Cc3ccccc32)ccc1-c1ccccc1C(F)(F)F [Example 161, 10-{[2-Methyl-2′-(trifluoromethyl)[1,1′-biphenyl]-4-yl]carbonyl}-N-[2-(1-piperidinyl)ethyl]-10,11-dihydro-5H-pyrrolo[2,1-c][1,4]benzodiazepine-3-carboxamide] | 53
O=C(c1ccc2n1Cc1ccccc1N(C(=O)c1ccc(-c3cccc4ccccc34)cc1Cl)C2)N1CCN(CCN2CCOCC2)CC1 [Example 215, {10-[2-Chloro-4-(1-naphthyl)benzoyl]-10,11-dihydro-5H-pyrrolo[2,1-c][1,4]benzodiazepin-3-yl}{4-[2-(4-morpholinyl)ethyl]-1-piperazinyl}methanone] | 26
COc1cc(C(=O)N2Cc3ccc(C(=O)NCCC4CCCN4C)n3Cc3ccccc32)ccc1-c1ccccc1C (stereo not drawn) [Example 167, 10-[(2-Methoxy-2′-methyl[1,1′-biphenyl]-4-yl)carbonyl]-N-[2-(1-methyl-2-pyrrolidinyl)ethyl]-10,11-dihydro-5H-pyrrolo[2,1-c][1,4]benzodiazepine-3-carboxamide] | 60
Cc1cc(C(=O)N2Cc3ccc(C(=O)N(C)C4CCN(C)C4)n3Cc3ccccc32)ccc1-c1ccccc1C(F)(F)F (stereo not drawn) [Example 194, N-Methyl-N-(1-methyl-3-pyrrolidinyl)-10-{[2-methyl-2′-(trifluoromethyl)[1,1′-biphenyl]-4-yl]carbonyl}-10,11-dihydro-5H-pyrrolo[2,1-c][1,4]benzodiazepine-3-carboxamide] | 96
COc1cccc(-c2cc(OC)c(C(=O)N3Cc4ccc(C(=O)N(C)C5CCN(C)CC5)n4Cc4ccccc43)cc2Cl)c1 [Example 181, 10-[(6-Chloro-3,3′-dimethoxy[1,1′-biphenyl]-4-yl)carbonyl]-N-methyl-N-(1-methyl4-piperidinyl)-10,11-dihydro-5H-pyrrolo[2,1-c][1,4]benzodiazepine-3-carboxamide] | 100
COc1cccc(-c2cc(OC)c(C(=O)N3Cc4ccc(C(=O)NCCN5CCCCC5)n4Cc4ccccc43)cc2Cl)c1 [Example 156, 10-[(6-Chloro-3,3′-dimethoxy[1,1′-biphenyl]-4-yl)carbonyl]-N-[2-(1-piperidinyl)ethyl]-10,11-dihydro-5H-pyrrolo[2,1-c][1,4]benzodiazepine-3-carboxamide] | 30
COc1cccc(-c2ccc(C(=O)N3Cc4ccc(C(=O)NCCN5CCCCC5)n4Cc4ccccc43)cc2OC)c1 [Example 159, 10-[(2,3′-Dimethoxy[1,1′-biphenyl]-4-yl)carbonyl]-N-[2-(1-piperidinyl)ethyl]-10,11-dihydro-5H-pyrrolo[2,1-c][1,4]benzodiazepine-3-carboxamide] | 50
COc1cccc(-c2ccc(C(=O)N3Cc4ccc(C(=O)N5CCN(CCN6CCOCC6)CC5)n4Cc4ccccc43)cc2OC)c1 [Example 211, {10-[(2,3′-Dimethoxy[1,1′-biphenyl]-4-yl)carbonyl]-10,11-dihydro-5H-pyrrolo[2,1-c][1,4]benzodiazepin-3-yl}{4-[2-(4-morpholinyl)ethyl]-1-piperazinyl}methanone] | 87
COc1cc(C(=O)N2Cc3ccc(C(=O)N(C)C4CCN(C)C4)n3Cc3ccccc32)ccc1-c1cccc2ccccc12 (stereo not drawn) [Example 192, 10-[3-Methoxy-4-(1-naphthyl)benzoyl]-N-methyl-N-(1-methyl-3-pyrrolidinyl)-10,11-dihydro-5H-pyrrolo[2,1-c][1,4]benzodiazepine-3-carboxamide] | 91

The remaining lines, values ahead:

inhibition at 0.1 µM [%] | SMILES
98 | Cc1ccccc1-c1ccc(C(=O)N2Cc3ccc(C(=O)N4CCN(CCN5CCOCC5)CC4)n3Cc3ccccc32)cc1C [Example 218, {10-[(2,2′-Dimethyl[1,1′-biphenyl]-4-yl)carbonyl]-10,11-dihydro-5H-pyrrolo[2,1-c][1,4]benzodiazepin-3-yl}{4-[2-(4-morpholinyl)ethyl]-1-piperazinyl}methanone]
86 | Cc1ccccc1-c1ccc(C(=O)N2Cc3ccc(C(=O)N4CCN(C(C)C)CC4)n3Cc3ccccc32)cc1C [Example 233, {10-[(2,2′-Dimethyl[1,1′-biphenyl]-4-yl)carbonyl]-10,11-dihydro-5H-pyrrolo[2,1-c][1,4]benzodiazepin-3-yl}(4-isopropyl-1-piperazinyl)methanone]
24 | CN(C)CCN1CCN(C(=O)c2ccc3n2Cc2ccccc2N(C(=O)c2ccc(-c4cccc5ccccc45)cc2Cl)C3)CC1 [Example 205, {10-[2-Chloro-4-(1-naphthyl)benzoyl]-10,11-dihydro-5H-pyrrolo[2,1-c][1,4]benzodiazepin-3-yl}{4-[2-(dimethylamino)ethyl]-1-piperazinyl}methanone]
93 | Cc1ccccc1-c1ccc(C(=O)N2Cc3ccc(C(=O)N(C)C4CCN(C)CC4)n3Cc3ccccc32)cc1 [Example 178, N-Methyl-10-[(2′-methyl[1,1′-biphenyl]-4-yl)carbonyl]-N-(1-methyl-4-piperidinyl)-10,11-dihydro-5H-pyrrolo[2,1-c][1,4]benzodiazepine-3-carboxamide]
98 | COc1ccccc1-c1ccc(C(=O)N2Cc3ccc(C(=O)N(C)C4CCN(C)CC4)n3Cc3ccccc32)cc1 [Example 177, 10-[(2′-Methoxy[1,1′-biphenyl]-4-yl)carbonyl]-N-methyl-N-(1-methyl-4-piperidinyl)-10,11-dihydro-5H-pyrrolo[2,1-c][1,4]benzodiazepine-3-carboxamide]
86 | COc1cc(C(=O)N2Cc3ccc(C(=O)N4CCN(CCN(C)C)CC4)n3Cc3ccccc32)ccc1-c1ccccc1C [Example 201, {4-[2-(Dimethylamino)ethyl]-1-piperazinyl}{10-[(2-methoxy-2′-methyl[1,1′-biphenyl]-4-yl)carbonyl]-10,11-dihydro-5H-pyrrolo[2,1-c][1,4]benzodiazepin-3-yl}methanone]
27 | Cc1ccccc1-c1ccc(C(=O)N2Cc3ccc(C(=O)NCCC4CCCN4C)n3Cc3ccccc32)cc1 (stereo not drawn) [Example 166, 10-[(2′-Methyl[1,1′-biphenyl]-4-yl)carbonyl]-N-[2-(1-methyl-2-pyrrolidinyl)ethyl]-10,11-dihydro-5H-pyrrolo[2,1-c][1,4]benzodiazepine-3-carboxamide]
87 | Cc1ccccc1-c1ccc(C(=O)N2Cc3ccc(C(=O)N4CCN(CCN(C)C)CC4)n3Cc3ccccc32)cc1 [Example 200, {4-[2-(Dimethylamino)ethyl]-1-piperazinyl}{10-[(2′-methyl[1,1′-biphenyl]-4-yl)carbonyl]-10,11-dihydro-5H-pyrrolo[2,1-c][1,4]benzodiazepin-3-yl}methanone]
